From patent publication US20040048827A1, “S-adenosylmethionine and derivatives thereof for the treatment and prevention of alzheimer's disease” (priority 2000, published 2004)
Entries after “also recorded” stand apart in the source; their conditions may differ. Each block holds one compound with its values, some of them ahead of it.

Columns and labels:
[1] = tested on: presenilin-1 (PS1) gene; assay: RT-PCR expression of presenilin-1 gene in SK-N-SH cells; format: cell-based, human
Experimental: (§1) SK-N-SH human neuroblastoma cell line was cultured, respectively, in HAM F14 (14) medium supplemented with 8-% foetal calf serum (GM), in F14 medium supplemented with 1% foetal calf serum and 10 μM retinopic acid (DM) and in DM, in the presence of 100 μM SAM. The cultures were re-fed every second day with the appropriate medium. The times indicate-are referred-to medium change as O-day.
(§2) Total RNA extraction was carried out using the acidified phenol procedure. For the expression studies by RT-PCR a reverse transcription was performed with 1 μg of total RNA using 50 pmol of oligo-d(T>)16 with 50 units of M-MuLV reverse transcriptase at 42° C. for one hour, followed by heat inactivation at 94° C. for 5 minutes. […] The subsequent amplification reactions were carried out for 20 to 30 cycles (1′ at 94° C., 1′ at annealing temperature, 1′30″ at 72° C.). The use of β-actin as internal standard allowed to control the processing of equal amount samples.
(§3) Aliquots of the PCR products (15 μl) were examined by electrophoresis in 1.5% agarose gel. Each gel was scanned by a CCD camera and acquired on a computerised densitometer. The specificity of the fragments was assessed by restriction analysis.

[2] = tested on: β-amyloid protein precursor (APP) gene; assay: RT-PCR expression of β-amyloid protein precursor gene in SK-N-SH cells; format: cell-based, human
Experimental: as §1, §2, §3

[3] = tested on: β-secretase gene; assay: RT-PCR expression of β-secretase gene in SK-N-SH cells; format: cell-based, human
Experimental: as §1, §2, §3

[4] = tested on: presenilin-2 (PS2) gene; assay: RT-PCR expression of presenilin-2 gene in SK-N-SH cells; format: cell-based, human
Experimental: as §1, §2, §3

[5] = tested on: SK-N-SH human neuroblastoma cells; assay: HPLC assay of S-adenosylmethionine passage into the cells; format: in vitro ADME
Experimental: as §1
Cell cultures were rinsed twice with phosphate buffered saline and frozen at −80° C. After thawing cells were scraped into 1 ml of deionized water and sonified for 15 seconds in ice. The macromolecules were precipitated from 1.5 M PCA at 4° C. for 1 hour adjusting the pH at 4-5 with KOH and then centrifuged for 15 minutes at 9000×g. The supernatants were freeze-dried. The HPLC measurements were carried out using a Varian HPLC System. The samples were dissolved in water and injected onto reverse-phase column (C-18) using a water-acetonitrile mobile-phase.

[6] = tested on: presenilin-1 protein; assay: Western blot of presenilin-1 protein in SK-N-SH cells; format: cell-based, human; conditions: DM with 100 μM SAM, 120 hours (5 days) of culture
Experimental: as §1
(§4) Detergent lysates were prepared from SK-N-SH cells in the presence of protease inhibitors (leupeptin, pepstatin, PMSF, 5 μg/ml each); protein extracts were performed after 5 days of culture in either GM or DM or DM supplemented with 100 μM SAM.
(§5) 10 μg of each protein extract were run on 8% PAGE for APP analysis and on 12% PAGE for PS1 analysis, and then blotted on nitrocellulose. APP was detected by a monoclonal antibody 22C11 (Boerhinger Mannheim) recognising three major bands at 116, 110, 106 KD. PS1 was detected by a monoclonal antibody (MAB1563 Chemicon) recognising a 31 KD band.

[7] = tested on: APP; assay: Western blot of APP in SK-N-SH cells; format: cell-based, human; conditions: GM, DM, DM with 100 μM SAM, 120 hours of culture
Experimental: as §1, §4, §5

[8] = tested on: Adam 10 gene; assay: RT-PCR expression of Adam 10 (α-secretase) gene in SK-N-SH cells; format: cell-based, human; conditions: SAM in DM, 48 and 96 hours of culture (signal apparent only at 48 hours)
Experimental: as §1, §2, §3

[9] = tested on: Adam 17 gene; assay: RT-PCR expression of Adam 17 (α-secretase) gene in SK-N-SH cells; format: cell-based, human; conditions: SAM in DM, 48 and 96 hours of culture
Experimental: as §1, §2, §3

[10] = tested on: Notch1 gene; assay: RT-PCR expression of Notch1 gene in SK-N-SH cells; format: cell-based, human; conditions: SAM in DM, 48 and 96 hours of culture
Experimental: as §1, §2, §3

[11] = tested on: 1-40 β-amyloid peptide; assay: ELISA of 1-40 β-amyloid peptide production in SK-N-SH cell culture supernatants; format: cell-based, human; conditions: SAM in DM vs DM, supernatants after 96 and 120 hours, normalised to cell protein
Experimental: as §1
Cell culture supernatants were collected and frozen after 96 and 120 hours from the beginning of the culture. Successively they were concentrated using Amicon micro-concentrators according to the manufacturer instructions. 100 μl of concentrated medium were used to perform the immunoassay employing, according to the manufacturer instructions, the Biosource International kit for the detection of 1-40 amyloid. The amount of β-amyloid was normalised to the concentration of the proteins extracted from the corresponding cell lysates.

[12] = DM with 100 μM SAM, 96 hours, compared to 96 hours without SAM
[13] = SK-N-SH cells, administration into the cell culture, RT-PCR

SAM in treated cell lysate relative to endogenous SAM [5]: 6 fold
Compound: C[S+](CC[C@H](N)C(=O)O)C[C@H]1O[C@@H](n2cnc3c(N)ncnc32)[C@H](O)[C@@H]1O (stereo partly drawn) [SAM, S-adenosylmethionine]
PS1 gene expression at 48 hours ([1]; DM with 100 μM SAM, 48 hours): accelerate the gene expression
PS1 gene expression at 96 hours [1, 12]: markedly down-regulated
APP gene expression at 48 hours ([2]; DM with 100 μM SAM, 48 hours): accelerate the gene expression
APP gene expression at 96 hours [2, 12]: did not increase and resulted inhibited
β-secretase gene expression at 48 hours ([3]; DM with 100 μM SAM, 48 hours): accelerate the gene expression
β-secretase gene expression at 96 hours [3, 12]: did not increase and resulted inhibited
PS2 gene expression at 48 hours ([4]; DM with 100 μM SAM, 48 hours): accelerate the gene expression
PS2 gene expression at 96 hours [4, 12]: did not increase and resulted inhibited
presenilin-1 protein synthesis (Western blot) [6]: marked reduction
APP isoforms level (Western blot) [7]: did not change
Adam 10 gene expression [8]: the same as that detectable in DM
Adam 10 gene expression ([8]; listed as S-adenosylmethionine): increased
Adam 17 gene expression [9]: over-expression
Adam 17 gene expression ([9]; listed as S-adenosylmethionine): increased
Notch1 gene expression [10]: comparable to that observed in GM at 48 hours; also recorded: does not modify
Notch1 gene expression ([10]; listed as S-adenosylmethionine): increased
1-40 β-amyloid peptide production [11]: reduces the same remarkably
1-40 β-amyloid peptide production ([11]; listed as S-adenosylmethionine): reduced

Compound: S-adenosylmethionine disulfonate
presenilin-1 gene expression [1, 13]: remarkable repression
β-amyloid protein precursor gene expression [2, 13]: block of the expression increase
β-secretase gene expression [3, 13]: block of the expression increase
presenilin-2 gene expression [4, 13]: block of the expression increase
presenilin-1 protein synthesis (Western blot) [6]: dramatic decrease
